In patent publication US12534456B2, “Heterocyclyl pyridines as novel fungicides” (Bayer Aktiengesellschaft, priority 2020, dated 2026):

Assay: physchem
Assay type: physicochemical
Description: Measurement of Log P values as provided herein was performed according to EEC directive 79/831 Annex V.A8 by HPLC (High Performance Liquid Chromatography) on reversed phase columns with the following methods: • ^[a]
If more than one Log P value is available within the same method, all the values are given and separated by “+”.
Lambda-max-values were determined using UV-spectra from 200 nm to 400 nm and the peak values of the chromatographic signals

Structure (SMILES)	LogP
Cc1ccc(CC2CON=C(c3cc(Cl)ncc3Oc3cccc(OC(F)F)c3F)N2)c(C)c1 (racemic) [Compound I-035]	4.23^[a]
Cc1ccc(CC2CON=C(c3cc(Cl)ncc3Oc3ccc4c(c3)CC4)N2)c(C)c1 (racemic) [Compound I-036]	4.88^[a]
Cn1cc(-c2ccc(CC3CON=C(c4cc(Cl)ncc4Oc4cccc(C(F)F)c4)N3)c(Cl)c2)cn1 (racemic) [Compound I-037]	3.37^[a]
CC(=O)c1ccc(CC2CON=C(c3cc(Cl)ncc3Oc3cccc(C(F)F)c3)N2)c(Cl)c1 (racemic) [Compound I-038]	3.47^[a]
C=Cc1ccc(CC2CON=C(c3cc(Cl)ncc3Oc3cccc(C(F)F)c3)N2)c(Cl)c1 (racemic) [Compound I-040]	4.29^[a]
CC1(C)ON=C(c2cc(Cl)ncc2Oc2cccc(C(F)(F)F)c2)NC1c1ccc(F)cc1F (racemic) [Compound I-043]	4.30^[a]
FC(F)(F)c1cccc(Oc2cnc(Cl)cc2C2=NOCC(c3ccc4c(c3)CCO4)N2)c1 (racemic) [Compound I-044]	3.57^[a]
COc1ccc(C2CON=C(c3cc(Cl)ncc3Oc3cccc(C(F)(F)F)c3)N2)cc1 (racemic) [Compound I-045]	3.60^[a]
FC(F)(F)c1cccc(Oc2cnc(Cl)cc2C2=NOCC(C3(c4ccccc4)CC3)N2)c1 (racemic) [Compound I-046]	4.21^[a]
Cc1ccc(C2CON=C(c3cc(Cl)ncc3Oc3cccc(C(F)(F)F)c3)N2)cc1 (racemic) [Compound I-048]	3.96^[a]
Cc1ccc(C2CON=C(c3cc(Cl)ncc3Oc3cccc(C(F)(F)F)c3)N2)cc1C (racemic) [Compound I-049]	4.24^[a]
FC(F)(F)c1cccc(Oc2cnc(Cl)cc2C2=NOCC(c3ccc(Cl)cc3)N2)c1 (racemic) [Compound I-050]	3.99^[a]
FC(F)(F)c1cccc(Oc2cnc(Cl)cc2C2=NOCC(c3ccc4c(c3)OCCO4)N2)c1 (racemic) [Compound I-052]	3.48^[a]
FC(F)(F)c1cccc(Oc2cnc(Cl)cc2C2=NOCC(c3ccc4ccccc4c3)N2)c1 (racemic) [Compound I-053]	4.20^[a]
FC(F)(F)c1cccc(Oc2cnc(Cl)cc2C2=NOCC(c3ccc4c(c3)CCC4)N2)c1 (racemic) [Compound I-054]	4.41^[a]
FC(F)(F)Oc1ccc(C2CON=C(c3cc(Cl)ncc3Oc3cccc(C(F)(F)F)c3)N2)cc1 (racemic) [Compound I-055]	4.26^[a]
Cc1ccc(CC2CON=C(c3cc(C#N)ncc3Oc3cccc(C(F)(F)F)c3)N2)cc1 (racemic) [Compound I-057]	4.12^[a]
C=Cc1cc(C2=NOCC(Cc3ccc(C)cc3)N2)c(Oc2cccc(C(F)(F)F)c2)cn1 (racemic) [Compound I-059]	4.19^[a]
Cc1ccc(CC2CON=C(c3cc(C#C[Si](C)(C)C)ncc3Oc3cccc(C(F)(F)F)c3)N2)cc1 (racemic) [Compound I-060]	5.53^[a]
CC(=O)c1cc(C2=NOCC(Cc3ccc(C)cc3)N2)c(Oc2cccc(C(F)(F)F)c2)cn1 (racemic) [Compound I-061]	4.07^[a]
Cc1ccc(CC2CON=C(c3c(Oc4cccc(C(F)(F)F)c4)cnc(Cl)c3F)N2)c(C)c1 (racemic) [Compound I-062]	4.66^[a]
Cc1ccc(CC2CON=C(c3cc(Cl)ncc3Oc3ccccc3)N2)c(C)c1 (racemic) [Compound I-063]	4.17^[a]
CSc1cccc(Oc2cnc(Cl)cc2C2=NOCC(Cc3ccc(C)cc3C)N2)c1 (racemic) [Compound I-064]	4.66^[a]
Cc1ccc(CC2CON=C(c3cc(Cl)ncc3Oc3cccc(OC(F)F)c3)N2)c(C)c1 (racemic) [Compound I-065]	4.38^[a]

Structure (SMILES)	LogP
Cc1ccc(CC2CON=C(c3cc(Cl)ncc3Oc3cccc(C4CC4)c3F)N2)c(Cl)c1 (racemic) [Compound I-066]	5.04^[a]
COc1cc(C2=NOCC(Cc3ccc(C)cc3Cl)N2)c(Oc2cccc(Cl)c2F)cn1 (racemic) [Compound I-067]	4.51^[a]
FC(F)(F)c1cccc(Oc2cnc(Cl)cc2C2=NOCC(Cc3csc(C(F)(F)F)c3)N2)c1 (racemic) [Compound I-068]	4.40^[a]
Cc1ccc(CC2CON=C(c3cc(C)ncc3Oc3cccc(Cl)c3F)N2)c(Cl)c1 (racemic) [Compound I-069]	4.07^[a]
FC(F)(F)c1cccc(Oc2cnc(Cl)cc2C2=NOCC(c3ccccc3)N2)c1 (racemic) [Compound I-070]	3.64^[a]
Fc1cccc(Oc2cnc(Cl)cc2C2=NOCC(Cc3ccc(Cl)cc3Cl)N2)c1F (racemic) [Compound I-071]	4.40^[a]
FC(F)(F)c1cc(Oc2cnc(Cl)cc2C2=NOCC(Cc3ccc(Cl)cc3Cl)N2)cs1 (racemic) [Compound I-072]	4.75^[a]
C#Cc1ccc(CC2CON=C(c3cc(C#C)ncc3Oc3cccc(C(F)(F)F)c3)N2)c(C)c1 (racemic) [Compound I-074]	3.75^[a]
C#Cc1cccc(Oc2cnc(Cl)cc2C2=NOCC(Cc3ccc(C)cc3C)N2)c1 (racemic) [Compound I-075]	4.33^[a]
Cc1ccc(CC2CON=C(c3cc(Cl)ncc3Oc3ccc(C)c(Cl)c3)N2)c(C)c1 (racemic) [Compound I-076]	4.97^[a]
COC(=O)Cc1cccc(Oc2cnc(Cl)cc2C2=NOCC(Cc3ccc(C)cc3C)N2)c1 (racemic) [Compound I-078]	4.08^[a]
Cc1ccc(CC2CON=C(c3cc(Cl)ncc3Oc3cccc(Br)c3F)N2)c(Cl)c1 (racemic) [Compound I-079]	4.70^[a]
N#Cc1ccc(C2CON=C(c3cc(Cl)ncc3Oc3cccc(C(F)(F)F)c3)N2)cc1 (racemic) [Compound I-080]	3.30^[a]
Cc1ccc(CC2CN=C(c3cc(Cl)ncc3Oc3cccc(C(F)(F)F)c3)N2)c(C)c1 (racemic) [Compound I-081]	2.64^[a]
Cc1ccc(CC2CON=C(c3cc(Cl)nc(F)c3Oc3cccc(C(F)(F)F)c3)N2)c(C)c1 (racemic) [Compound I-082]	4.97^[a]
Cc1cc(Cl)ccc1CC1CON=C(c2cc(Cl)ncc2Oc2cccc(Cl)c2F)N1 (racemic) [Compound I-083]	4.59^[a]
Cc1ccc(CC2CNN=C(c3cc(Cl)ncc3Oc3cccc(C(F)(F)F)c3)N2)c(C)c1 (racemic) [Compound I-084]	2.86^[a]
Cc1ccc(CC2CON=C(c3cc(Cl)ncc3Oc3cccc(C=O)c3)N2)c(C)c1 (racemic) [Compound I-085]	3.64^[a]
Cc1ccc(CC2CON=C(c3cc(Cl)ncc3Oc3ccc4ccccc4c3)N2)c(C)c1 (racemic) [Compound I-086]	4.77^[a]
Cc1ccc(CC2CON=C(c3cc(Cl)ncc3Oc3cccc(Cl)c3F)N2)c(Cl)c1 (racemic) [Compound I-087]	4.66^[a]
Cc1ccc(CC2CON=C(c3cc(Cl)ncc3Oc3cccc(-c4ccccn4)c3)N2)c(C)c1 (racemic) [Compound I-089]	3.87^[a]
FC(F)(F)Sc1cccc(Oc2cnc(Cl)cc2C2=NOCC(Cc3ccc(Cl)cc3Cl)N2)c1 (racemic) [Compound I-090]	5.16^[a]
C#Cc1cc(C2=NOCC(Cc3ccc(Br)cc3C)N2)c(Oc2cccc(C(F)(F)F)c2)cn1 (racemic) [Compound I-091]	4.19^[a]
